Data set [1] relates to obese children who had steatosis. The settings on record: vitamin E 400-1000 IU/day for 4-10 months, cited from earlier work.
A further data set has as its system leukocyte cystine. The settings on record: cited from earlier work.
Data set [2] has as its system intracellular cystine (circulating white blood cells). The settings on record: taken regularly; measured in circulating white blood cells; cited from earlier work.
Data set [3] concerns New Zealand white rabbits fed a high fat diet (HFD). Briefly: 8-week study: cysteamine in drinking water in rabbits fed a high-fat diet (NAFLD/NASH model). The following applies: for mean AST value: control HFD 117.1 U/L. Format: in vivo. The source says:
(§1) J. Pathol., 170(3):967-980 (2007). Male New Zealand white rabbits were fed a high-fat diet (HFD) containing 20% corn oil and 1.25% cholesterol in order to induce clinical and histological features characteristic of NAFLD and non-alcoholic steatohepatitis (NASH).
The study design included five groups of eight rabbits.
Observations during the study included twice weekly body weights, daily food and water consumption, and daily clinical observations. Blood samples were collected prior to the start of the study, and on weeks 2, 6, and 8 for a full panel of hematology parameters and a selected panel of serum chemistries, including ALT, AST, amylase, lipase, total cholesterol, triglycerides, LDH, HDL-cholesterol, and LDL-cholesterol.

Data set [4] has as its system New Zealand white rabbits fed a high-fat diet (HFD). Briefly: Pilot study: 7-day intraperitoneal cysteamine in rabbits fed a high-fat diet (NAFLD model). The following applies: for mean LDL-cholesterol value: control HFD 272.5 mg/dL; for mean total cholesterol value: control HFD 842 mg/dL; for mean LDH value: control HFD 190 U/L; for increase in LDL-cholesterol compared to baseline values: control HFD about 29-fold; for increase in total cholesterol over baseline value: control HFD approximately 20-fold; for decrease in LDH compared to baseline values: control HFD increased 1.7-fold. Format: in vivo, rabbit.
Description: as §1
Endpoints included daily standard clinical observations, quantitative daily food consumption, body weights on Study Day (SD) −1, 2, 5, and 8 (day of necropsy), and blood samples collected on SD-1 and SD8 for the evaluation of selected clinical chemistries (alanine aminotransferase (ALT), aspartate aminotransferase (AST), amylase, lipase, total cholesterol, triglycerides, lactate dehydrogenase (LDH), high density lipoprotein cholesterol (HDL-cholesterol), and low density lipoprotein cholesterol (LDL-cholesterol)) and a full hematology panel. Animals were sacrificed on SD8.

Data set [5] concerns obese individuals with NASH. The following applies: treated for 4-12 weeks; no reported change in body mass index; cited from earlier work.
[6] abbreviates: delivery of cysteamine to the small intestine.
[7] abbreviates: week 8, 250 mg/kg/day in drinking water.

In the case of vitamin E, in data set [1] (decreased from 104±61 IU/L, P<0.002), the “mean AST levels after treatment” value was 33±11 IU/L. Besides, in data set [1] (decreased from 175±106 IU/L, P<0.01), the “mean ALT levels after treatment” value was 40±26 IU/L.

Take `NCCS` [cysteamine]: in the data set with leukocyte cystine (delivery into the small intestine), the “time to observed decrease in leukocyte cystine” value is recorded as “within an hour”. Besides, in the data set with leukocyte cystine (setting [6]), the AUC entry is “increases” and the Cmax entry is “increases”. Moreover, the “depletion of intracellular cystine” value in data set [2] is given as “up to 90%”. The body weights result in data set [3] (cysteamine treated animals vs control HFD animals) was “parallel those of the control HFD animals”. The “animals that died on study or were sacrificed moribund” value in data set [3] (rabbit, in vivo, 75 mg/kg/day) is on record as “Three”. The animals sacrificed moribund entry in data set [3] (rabbit, in vivo, 250 mg/kg/day) is listed as “One”. Besides, in data set [3] (summary of both rabbit studies), the “AST levels reduced compared to the HFD diet control animals” value is listed as 1.6- to 1.9 fold and the “reductions of AST compared to the HFD diet control animals” value was in the range of 37 to 47%. Also, the “mean AST value” in data set [3] (week 8, 25 mg/kg/day in drinking water) stood at 62.5 U/L. Besides, in data set [3] (setting [7]), the “increase in HDL-cholesterol over the HFD control mean value” is listed as 1.6 fold, the “increase in HDL-cholesterol over the control standard diet value” is on record as 3.7 fold and the “mean AST value” is listed as 75.7 U/L. Besides, the “mean HDL-cholesterol value” in data set [3] (week 8, 250 mg/kg/day in drinking water, HFD control 36.9, standard diet 15.7 mg/dL) was 58.3 mg/dL. In addition, the “mean LDH value” in data set [3] (week 8, 250 mg/kg/day in drinking water, HFD control 375 U/L, standard diet control 125.6 U/L) was 140 U/L. Moreover, the “change in LDH values compared to the Group 2 HFD controls” value in data set [3] (week 8, all three dose levels (25, 75, 250 mg/kg/day) in drinking water) is reported as “decrease in LDH values at all three dose levels”. For the same compound, in data set [4] (75 mg/kg/day IP Q8H), the “LDH as % of the control HFD values on SD8” value came to 33%. Besides, the “LDH as % of the control HFD values on SD8” value in data set [4] (250 mg/kg/day IP Q8H) was found to be 59%. In addition, in data set [4] (SD8, 75 mg/kg/day IP Q8H), the “LDL-cholesterol: % less of an increase than the HFD controls” value is 23%, the “total cholesterol: % less of an increase than the HFD controls” value stood at 23%, the “mean LDL-cholesterol value” was found to be 210 mg/dL and the “mean total cholesterol value” turned out to be 652 mg/dL. In addition, in data set [4] (SD8, 75 mg/kg/day IP Q8H), the “mean LDH value” stood at 128 U/L, the “increase in LDL-cholesterol compared to baseline values” is listed as “about 12 fold”, the “increase in total cholesterol over baseline value” is around 12 fold and the “decrease in LDH compared to baseline values” came to 1.2 fold. Moreover, in data set [4] (SD8, 250 mg/kg/day IP Q8H), the “LDL-cholesterol: % less of an increase than the HFD controls” value came out at 45%, the “decrease in mean AST value vs control HFD group” value is on record as 1.9 fold, the “mean AST as % of the control HFD value” is given as 47% and the “total cholesterol: % less of an increase than the HFD control values” is on record as 59%. Also, in data set [4] (SD8, 250 mg/kg/day IP Q8H), the “mean LDL-cholesterol value” is listed as 150.5 mg/dL, the “mean total cholesterol value” came out at 347 mg/dL, the “mean LDH value” turned out to be 77.5 U/L and the “increase in LDL-cholesterol compared to baseline values” is on record as “about 14 fold”. Besides, in data set [4] (SD8, 250 mg/kg/day IP Q8H), the “increase in total cholesterol over baseline value” is listed as around 7.5 fold and the “decrease in LDH compared to baseline values” was 3.1 fold. Moreover, the “mean AST value” in data set [4] (SD8, 250 mg/kg/day IP Q8H, control HFD group 19.0 U/L) was 10.0 U/L.

Take `CC(=O)N[C@@H](CS)C(=O)O` [N-acetylcysteine]: the “aminotransferase levels and gamma-GT” value in data set [5] is “improvement”.

These data come from patent US10307386B2 (priority 2007, dated 2019).
